In paper PMC11884657, “Ru(II)-Fenamic-Based Complexes as Promising Human Ovarian Antitumor Agents: DNA Interaction, Cellular Uptake, and Three-Dimensional Spheroid Models” (Inorganic Chemistry, 2025):
Where two headings read alike, the source gives them in different places.

Legend:
[1] = test system: A2780 ovarian cancer cells; assay: Morphological assay (bright field, PI, DAPI/Green Plasma); format: cell-based, human; details: for DAPI and Green Plasma staining / propidium iodide fluorescence intensity: 48 h, 0.5 × IC50, IC50, 2 × IC50; for cell morphology: up to 48 h, mainly at higher concentrations
Procedure: For morphological analysis, A2780 cancer cells (0.3 × 10^5 cells/well) were added to a 12-well plate in RPMI medium. After 24 h, different concentrations of complexes 1 and 2 were introduced into the cells. Possible morphological changes were evaluated at 0 and 48 h using an inverted optical microscope (NIKON ECLIPSE TS100) coupled with a Motcam 1SP camera, with a 10× objective lens.
Additionally, 1.5 × 10^4 A2780 cells/well were plated in 96-well plates in RPMI medium for the fluorescence morphology experiments. After treatment for 48 h, 100 μL (1 μg mL^–1) of the fluorescent marker PI ([…]) was added. For the morphological assessment using the fluorescent markers DAPI (4′,6-diamidino-2-phenylindole dilactate) and Green Plasma (CellMask), the cells were fixed in methanol and 80 μL (1 μg mL^–1) portions of the markers were added. Images were taken using a CELENA microscope (Logos Biosystems).

[2] = test system: MRC-5 (lung) normal cells; assay: MTT cytotoxicity assay, MRC-5; details: read-out: In Vitro Cytotoxicity IC50, MRC-5; MTT, 48 h treatment
Procedure: (§1) The cell lines were grown in culture bottles and incubated at a CO2 concentration of 5% and 37 °C.
(§2) Cell viability was investigated via the MTT [3-(4,5-dimethylthiazol-2-yl)-2,5-diphenyltetrazolium bromide] assay. This method consists of the capacity of enzymes present in living cells, especially in mitochondria, to reduce MTT to formazan, a purple-colored compound. […] For the assays, 1.5 × 10^4 cells/well were seeded in 96-well flat-bottom cell culture plates (KASVI). The plates were incubated for 24 h; then, different concentrations of the complexes were pipetted, and the plates were treated for an additional 48 h. To complete the treatment, 50 μL of MTT (1 mg/mL in PBS) was added to each well, followed by incubation for 3 h. The formazan crystals that formed were solubilized in isopropanol, and the absorbance was read with a microplate reader (BioTek, Epoch) at 540 nm. Cell viability (IC50) was assessed with GraphPad Prism 8.

[3] = test system: A2780cis (ovarian cisplatin-resistant) cancer cells; assay: MTT cytotoxicity assay, A2780cis; details: read-out: In Vitro Cytotoxicity IC50, A2780cis
Procedure: as §1, §2

A2780 cancer cells = assay: Clonogenic survival assay; format: cell-based, human; details: 0.5 × IC50, 48 h treatment then 7 days
Procedure: The A2780 cancer cells were used for the clonogenic assay, in which a total of 400 cells/well were seeded in a six-well plate in RPMI medium, and after incubation for 24 h, different concentrations of complexes 1 and 2 were added. The plates containing the complexes were incubated (37 °C and 5% of CO2) for 48 h. The culture medium was replaced with fresh medium, and the system was incubated again for 7 days under the same condition. Thereafter, all culture media were removed from the plate, and the cells were washed with PBS and fixed with a 3:1 methanol/acetic acid mixture. Then the cells were colored with a 0.5% crystal violet solution in water for 30 min. Images were taken, and the colonies counted using ImageJ. The experiment was also carried out in triplicate.

[4] = test system: MDA-MB-231 (breast) cancer cells; assay: MTT cytotoxicity assay, MDA-MB-231; details: read-out: In Vitro Cytotoxicity IC50, MDA-MB-231
Procedure: as §1, §2

[5] = test system: A2780 (ovarian) cancer cells; assay: MTT cytotoxicity assay, A2780; details: read-out: In Vitro Cytotoxicity IC50, A2780
Procedure: as §1, §2

A2780 cells = assay: Cellular uptake of ruthenium by HR-CS GFAAS; format: cell-based, human; details: 1 μM complex, 4 h
Procedure: Due to the higher cytotoxicity of complexes 1 and 2 against the A2780 cell line, experiments were performed to evaluate their cell internalization capacity. These studies are crucial to determine whether the complexes can efficiently penetrate the cell membrane and to correlate their antiproliferative effects with their uptake levels.[59] A2780 cells were exposed to complexes 1 and 2 (1 μM) over a period of 4 h, and the cellular uptake of ruthenium was quantified using graphite furnace atomic absorption spectrometry.
A2780 cancer cells (2 × 10^6 cells/plate) were seeded in Petri dishes. After 24 h, complexes 1 and 2 (1 μM) were added to the cells for 4 h. Subsequently, the RPMI medium was removed, and the cells were washed with phosphate-buffered saline (PBS), trypsinized, and counted. The ruthenium absorbance measurements were conducted with an Analytik Jena ContrAA 700 graphite furnace atomic absorption spectrometer (Jena, Germany), equipped with solid sampling tubes. The absorbance measurements were performed at 349.8945 nm, with the peak volume selected absorbance (PVSA) corresponding to three pixels. The heating program for the graphite furnace, used for the quantitative determination of ruthenium, is depicted in Table S4.[66] The analytical working solution of 50 mg L^–1 Ru was prepared by diluting standard solutions of 1000 mg L^–1 Ru (Specsol, São Paulo, Brazil) and acidifying with 0.5% (v/v) HNO3. To establish the calibration curve, appropriate aliquots of the analytical working solution were added to the atomizer to achieve concentrations of 0.1, 0.3, 0.6, 0.9, 1.2, and 1.5 ng of ruthenium. The cell suspension containing the internalized complexes was diluted with 500 μL of deionized water, acidified with 0.5% (v/v) HNO3, and homogenized using a vortex mixer (IKA model V1). For the determination of Ru by SS HR-CS GFAAS, 10 μL aliquots of the samples were transferred to the platform and introduced automatically into the graphite furnace, in which all measurements were carried out in triplicate.

A549 (lung) cancer cells = assay: MTT cytotoxicity assay, A549; details: read-out: In Vitro Cytotoxicity IC50, A549
Procedure: as §1, §2

[6] = MTT cytotoxicity assay, MRC-5; details: human
Procedure: as §1, §2

in vitro = details: human
Procedure: as §1, §2

A2780 tumor spheroids = assay: 3D tumor spheroids; format: cell-based, human
Procedure: In this experiment, the spheroids were monitored for 144 h after treatment with 1 at several concentrations (0.78–12.5 μM). […] As observed, at this concentration there is a decrease in the diameter, followed by stabilization, after treatment for 48 h. […] These findings underscore the necessity to refine in vitro methodologies to better elucidate the potential of novel compounds. Such improvements are crucial for increasing the likelihood of identifying critical insights early in the drug discovery and development process, thereby minimizing errors in subsequent stages. After treatment for 144 h, double staining with both DAPI and PI was performed.
In a 96-well Bioprint Kit [Magnetic 3D Cell Culture Technology (m3D)], the 3D culture experiment was carried out. Initially, to the A2780 cells was added 150 μL of a solution containing nanoparticles (NanoShuttle - PL). The A2780 cells were added to a 96-well repellent culture plate after 24 h. The resulting 1500 cells/well were placed under magnetic drives to form spheroids through the magnetic forces of the magnets. […] The formation of spheroids and their growth were monitored by a Digital Imaging System microscope (CELENA S, Logos Biosystems). Once the spheroids were formed, complex 1 at different concentrations (0.78, 1.56, 3.12, 6.25, and 12.5 μM) was added, and the effect of the compound on the spheroids was monitored for 144 h. […]

Stability by 31P{1H} NMR = details: 48 h
Procedure: Furthermore, the stability of the complexes was studied via ^31P{^1H} NMR in DMSO and a DMSO/DMEM (Dulbecco’s modified Eagle’s medium) solution over 48 h. […] In the same way, stability assays were performed for the precursor cis-[RuCl2(bipy)(dppp)].

With `Cc1cccc(Nc2ccccc2C2=[O+][Ru-4]34([O]2)([n+]2ccccc2-c2cccc[n+]23)[P+](c2ccccc2)(c2ccccc2)CCC[P+]4(c2ccccc2)c2ccccc2)c1C.F[P-](F)(F)(F)(F)F` [complex 2, [Ru(MFen)(bipy)(dppp)]PF6] the “DAPI and Green Plasma staining” value [1] was “significant shortening of the plasma membrane, while the nucleus remained intact”, the “propidium iodide fluorescence intensity” value [1] was “significant increase in fluorescence intensity” and the cell morphology [1] was “loss of adhesion and round cells are observed”. The IC50 [2] was 2.33 ± 0.04 µM, the IC50 ([3]; MTT, 48 h treatment) was 1.11 ± 0.06 µM and the “effect on colony formation” value (A2780 cancer cells) was “significantly reduced both the number and size of colonies”. The IC50 ([4]; MTT, 48 h treatment) was 3.99 ± 0.21 µM, the IC50 ([5]; MTT, 48 h treatment) was 0.91 ± 0.06 µM and the Ru uptake percentage (A2780 cells) was 4,5%. For the same compound, the “amount of ruthenium internalized by A2780 cells” value (A2780 cells) was 26,0 ± 1,9 ng and the IC50 (A549 (lung) cancer cells; MTT, 48 h treatment) was 4.57 ± 0.08 µM.
For `Cc1c(Cl)cccc1Nc1ccccc1C(=O)O` [HMTFe, tolfenamic acid], the IC50 at 48 h [6] was greater than 100 µM, the IC50 ([3]; Homo sapiens, A2780cis, 48 h) was greater than 100 µM and the IC50 ([4]; Homo sapiens, MDA-MB-231, 48 h) was greater than 100 µM. The IC50 ([5]; Homo sapiens, A2780, 48 h) was greater than 100 µM and the IC50 (A549 (lung) cancer cells; Homo sapiens, A549, 48 h) was greater than 100 µM.
Work on `Cc1c(Cl)cccc1Nc1ccccc1C1=[O+][Ru-4]23([O]1)([n+]1ccccc1-c1cccc[n+]12)[P+](c1ccccc1)(c1ccccc1)CCC[P+]3(c1ccccc1)c1ccccc1.F[P-](F)(F)(F)(F)F` [complex 3, [Ru(TFen)(bipy)(dppp)]PF6] yielded an IC50 [2] of 3.58 ± 0.02 µM, an IC50 ([3]; MTT, 48 h treatment) of 2.68 ± 0.26 µM and an IC50 ([4]; MTT, 48 h treatment) of 3.71 ± 0.15 µM. The IC50 ([5]; MTT, 48 h treatment) was 2.25 ± 0.08 µM and the IC50 (A549 (lung) cancer cells; MTT, 48 h treatment) was 8.74 ± 0.23 µM.
`O=C(O)c1ccccc1Nc1cccc(C(F)(F)F)c1` [HMFFe, flufenamic acid] showed an IC50 at 48 h (in vitro) greater than 100 µM, an IC50 ([3]; Homo sapiens, A2780cis, 48 h) greater than 100 µM and an IC50 ([4]; Homo sapiens, MDA-MB-231, 48 h) greater than 100 µM. For the same compound, the IC50 ([5]; Homo sapiens, A2780, 48 h) was greater than 100 µM and the IC50 (A549 (lung) cancer cells; Homo sapiens, A549, 48 h) was greater than 100 µM.
Compound `O=C(O)c1ccccc1Nc1ccccc1` [HFe, fenamic acid] has an IC50 at 48 h [6] greater than 100 µM, an IC50 ([3]; Homo sapiens, A2780cis, 48 h) greater than 100 µM and an IC50 ([4]; Homo sapiens, MDA-MB-231, 48 h) greater than 100 µM. The IC50 ([5]; Homo sapiens, A2780, 48 h) was greater than 100 µM and the IC50 (A549 (lung) cancer cells; Homo sapiens, A549, 48 h) was greater than 100 µM.
Compound `Cc1cccc(Nc2ccccc2C(=O)O)c1C` [HMFe, mefenamic acid] has an IC50 at 48 h [6] greater than 100 µM, an IC50 ([3]; Homo sapiens, A2780cis, 48 h) greater than 100 µM and an IC50 ([4]; Homo sapiens, MDA-MB-231, 48 h) greater than 100 µM. It also gave an IC50 ([5]; Homo sapiens, A2780, 48 h) greater than 100 µM and an IC50 (A549 (lung) cancer cells; Homo sapiens, A549, 48 h) greater than 100 µM.
For `F[P-](F)(F)(F)(F)F.c1ccc(Nc2ccccc2C2=[O+][Ru-4]34([O]2)([n+]2ccccc2-c2cccc[n+]23)[P+](c2ccccc2)(c2ccccc2)CCC[P+]4(c2ccccc2)c2ccccc2)cc1` [complex 1, [Ru(Fen)(bipy)(dppp)]PF6], the “DAPI and Green Plasma staining” value [1] was “significant shortening of the plasma membrane, while the nucleus remained intact”, the “propidium iodide fluorescence intensity” value [1] was “significant increase in fluorescence intensity” and the cell morphology [1] was “loss of adhesion and round cells are observed”. The IC50 [2] was 2.47 ± 0.18 µM, the “concentration at which spheroid growth (diameter) was significantly compromised” value (A2780 tumor spheroids; 0.78–12.5 μM tested, monitored 144 h) was 12.5 µM and the “PI fluorescence in spheroids” value (A2780 tumor spheroids; DAPI/PI double staining after 144 h) was “increase in the fluorescence intensity of the PI marker”. For the same compound, the IC50 ([3]; MTT, 48 h treatment) was 0.96 ± 0.04 µM, the “effect on colony formation” value (A2780 cancer cells) was “significantly reduced both the number and size of colonies” and the IC50 ([4]; MTT, 48 h treatment) was 2.87 ± 0.11 µM. The IC50 ([5]; MTT, 48 h treatment) was 0.66 ± 0.04 µM, the Ru uptake percentage (A2780 cells) was 3,6% and the “amount of ruthenium internalized by A2780 cells” value (A2780 cells) was 20,8 ± 3,2 ng. For the same compound, the IC50 (A549 (lung) cancer cells; MTT, 48 h treatment) was 3.96 ± 0.4 µM.
For `c1ccc(-c2ccccn2)nc1` [Bipy, 2,2′-bipyridine], the IC50 at 48 h ([6]; MRC-5 normal lung cells) was greater than 100 µM, the IC50 ([3]; Homo sapiens, A2780cis, 48 h) was greater than 100 µM and the IC50 ([4]; Homo sapiens, MDA-MB-231, 48 h) was greater than 100 µM. For the same compound, the IC50 ([5]; Homo sapiens, A2780, 48 h) was greater than 100 µM and the IC50 (A549 (lung) cancer cells; Homo sapiens, A549, 48 h) was greater than 100 µM.
With `FC(F)(F)c1cccc(Nc2ccccc2C2=[O+][Ru-4]34([O]2)([n+]2ccccc2-c2cccc[n+]23)[P+](c2ccccc2)(c2ccccc2)CCC[P+]4(c2ccccc2)c2ccccc2)c1.F[P-](F)(F)(F)(F)F` [complex 4, [Ru(FFen)(bipy)(dppp)]PF6] the IC50 [2] was 4.36 ± 0.19 µM, the IC50 ([3]; MTT, 48 h treatment) was 4.25 ± 0.11 µM and the IC50 ([4]; MTT, 48 h treatment) was 2.34 ± 0.14 µM. It also gave an IC50 ([5]; MTT, 48 h treatment) of 2.14 ± 0.11 µM and an IC50 (A549 (lung) cancer cells; MTT, 48 h treatment) of 6.87 ± 0.35 µM.
In the case of `[Cl][Ru-4]12([Cl])([n+]3ccccc3-c3cccc[n+]31)[P+](c1ccccc1)(c1ccccc1)CCC[P+]2(c1ccccc1)c1ccccc1` [[RuCl2(bipy)(dppp)], cis-[RuCl2(bipy)(dppp)]], the IC50 [2] is reported as 40.9 ± 1.76 µM, the IC50 ([3]; MTT, 48 h treatment) is reported as 35.6 ± 1.7 µM and the IC50 ([4]; MTT, 48 h treatment) is reported as 26.1 ± 4.84 µM. The IC50 ([5]; MTT, 48 h treatment) was 28 ± 0.81 µM, the “stability in DMSO” value (Stability by 31P{1H} NMR) was “new signals are observed at ∼40 ppm” and the “stability in DMSO/DMEM solution” value (Stability by 31P{1H} NMR) was “two other doublets with chemical shifts at ∼33 and ∼46 ppm”. It also gave an IC50 (A549 (lung) cancer cells; MTT, 48 h treatment) greater than 50 µM.
With `c1ccc(P(CCCP(c2ccccc2)c2ccccc2)c2ccccc2)cc1` [Dppp, 1,3-bis(diphenylphosphino)propane] the IC50 at 48 h (in vitro) was greater than 100 µM, the IC50 ([3]; Homo sapiens, A2780cis, 48 h) was greater than 100 µM and the IC50 ([4]; Homo sapiens, MDA-MB-231, 48 h) was greater than 100 µM. The IC50 ([5]; Homo sapiens, A2780, 48 h) was greater than 100 µM and the IC50 (A549 (lung) cancer cells; Homo sapiens, A549, 48 h) was greater than 100 µM.
